The text below walks through data of US20210147807A1, “METHODS FOR PURIFYING ENDODERM AND PANCREATIC ENDODERM CELLS DERIVED FROM HUMAN EMBRYONIC STEM CELLS” (HELMHOLTZ ZENTRUM MUNCHEN - DEUTSCHES FORSCHUNGSZENTRUM FUR …, priority 2017, published 2021).

In assay [1] the test system is PDX1+/NKX6.1+ PP2 cells derived from CD177+, CD275+ and CXCR4+ subpopulations. Description: Inhibition of WNT secretion during gut tube patterning, FACS for PDX1+/NKX6.1+ PP2 cells from sorted ADE subpopulations. The format is cell-based, human. The settings on record: after addition of IWP2 (1.25 μM) at S2, 2D culture. As to the method:
A) Overview of differentiation protocol towards pancreatic progenitors where inhibition of WNT secretion is performed at […] stage using IWP2 B-D) FACS quantification (B) and immunocytochemistry (C-D) for the percentage of cells expressing
PDX1+/NKX6.1+ generated from CD177+-, CD275+- and CXCR4+-ADE before (B, C), Scale bars, 50 μm and after (B, D) the treatment with IWP2. Scale bars, 20 μm.
H9, Mel1-NKX6.1-GFPand iPSCs were cultured on 1:30 diluted Geltrex (Invitogen, U.K, Cat #A1413302) in StemMACS iPS-Brew medium (Miltenyi Biotech, Germany, Cat #130-104-368). At ^˜70-80% confluency, cultures were rinsed with 1×DPBS without Mg2+ and Ca2+ (Invitrogen, Cat #14190) followed by incubation with 0.5 mM EDTA (Applichem, Cat #12604-021) for 2-3 min at 37° C. Single cells were rinsed with iPS-Brew, and spun at 1,300 r.p.m. for 3 mins. The resulting cell pellet was suspended in iPS-Brew medium supplemented with Y-27632 (10 μM; Sigma-Aldrich; MO, Cat #Y0503) and the single cell suspension was seeded at ^˜1.5-2×10 s cells/cm2 on Geltrex-coated surfaces. Cultures were fed every day with iPS-Brew medium and differentiation was initiated 24 h following seeding, resulting in ^˜90% starting confluency. The cells were differentiated towards definitive endoderm using MCDB131 medium supplemented with 0.5% BSA (Sigma, Cat #10775835001), 100 ng/ml Activin A (Peprotech, Cat #120-14-300) and 25 ng/ml WNT3A (Peprotech, Cat #315-20) for the first day. For the next 2 days, the cells were treated with MCDB131 supplemented with 0.5% BSA and 100 ng/ml Activin A. For differentiation towards β cells, Rezania, et. al; 2014 β-cell differentiation protocol was used 14. In nutshell, the cells were differentiated towards primitive gut tube with MCDB131 supplemented with 0.5% BSA, 50 ng/ml of FGF7 (Peprotech, Cat #100-19-100) and 0.25 mM Vit.C (Sigma, Cat #120-14-300) for 2 days. For differentiation towards posterior foregut, the cells were further exposed to MCDB131 medium supplemented with 1xGlutamax (Gibco, Cat #A12860-01), 2% BSA (Cat #10775835001), 0.25 mM Vit. […]

Assay [2] relates to CD177+ and CD275+ ADE subpopulations in the bulk CXCR4+ DE population. The assay can be described thus: Modulation of ADE differentiation efficiency by BMP/TGF-β inhibitors during endoderm induction, FACS percentage of CD177+ and CD275+ ADE. The assay is classed as cell-based, human. The conditions noted are these: for percentage of CD275+ DE differentiation: combination of 2.5 μM DMH1 and 1 μM SB431542, endoderm differentiation until D4. As to the method:
I-K) Pie charts representing the percentage of CD177+ and CD275+ ADE subpopulations generated using no inhibition of pathways (I, condition 1), with high inhibition of BMP signalling using BMP inhibitor DMH1 (J, condition 2) and with moderate BMP inhibition and low TGF-β inhibition (K, condition 3).
H9, Mel1-NKX6.1-GFPand iPSCs were cultured on 1:30 diluted Geltrex (Invitogen, U.K, Cat #A1413302) in StemMACS iPS-Brew medium (Miltenyi Biotech, Germany, Cat #130-104-368). At ^˜70-80% confluency, cultures were rinsed with 1×DPBS without Mg2+ and Ca2+ (Invitrogen, Cat #14190) followed by incubation with 0.5 mM EDTA (Applichem, Cat #12604-021) for 2-3 min at 37° C. Single cells were rinsed with iPS-Brew, and spun at 1,300 r.p.m. for 3 mins. The resulting cell pellet was suspended in iPS-Brew medium supplemented with Y-27632 (10 μM; Sigma-Aldrich; MO, Cat #Y0503) and the single cell suspension was seeded at ^˜1.5-2×10 s cells/cm2 on Geltrex-coated surfaces. Cultures were fed every day with iPS-Brew medium and differentiation was initiated 24 h following seeding, resulting in ^˜90% starting confluency. The cells were differentiated towards definitive endoderm using MCDB131 medium supplemented with 0.5% BSA (Sigma, Cat #10775835001), 100 ng/ml Activin A (Peprotech, Cat #120-14-300) and 25 ng/ml WNT3A (Peprotech, Cat #315-20) for the first day. For the next 2 days, the cells were treated with MCDB131 supplemented with 0.5% BSA and 100 ng/ml Activin A. For differentiation towards β cells, Rezania, et. al; 2014 β-cell differentiation protocol was used 14. In nutshell, the cells were differentiated towards primitive gut tube with MCDB131 supplemented with 0.5% BSA, 50 ng/ml of FGF7 (Peprotech, Cat #100-19-100) and 0.25 mM Vit.C (Sigma, Cat #120-14-300) for 2 days. For differentiation towards posterior foregut, the cells were further exposed to MCDB131 medium supplemented with 1xGlutamax (Gibco, Cat #A12860-01), 2% BSA (Cat #10775835001), 0.25 mM Vit. C (Sigma, Cat #A4544-25G), 50 ng/ml FGF7, 0.25 μM SANT-1 (Sigma, Cat #54572-5MG), 1 μM retinoic acid (Sigma, Cat #R2625-50MG), 100 nM LDN193189 (Sigma, Cat #04-0074), 1:200 ITS-X (Gibco, Cat #51500-056) and 200 nM TPB (Merk Millipore, Cat #565740-1MG) for 2 days. For the WNT inhibition experiment only, 1.25 μM of IWP2 (Tocris, Cat #3533-10) was added to the cultures. The cells were then further differentiated towards pancreatic endoderm using MCDB131 supplemented with 1xGlutamax, 10 mM final glucose concentration, 2% BSA, 0.25 mM Vit.C, 2 ng/ml FGF7, 0.25 μM SANT-1, 0.1 μM retinoic acid, 200 nM LDN193189, 1:200 ITS-X and 100 nM TPB for 3 days. […]

Where [3] appears, read: standard differentiation without inhibitor 21%.

Take `Cc1ccc2nc(NC(=O)CSc3nc4c(c(=O)n3-c3ccccc3)SCC4)sc2c1` [IWP2]: in assay [1] (without IWP2 approx. 30%), the “percentage of PDX1+/NKX6.1+ PP2 cells derived from CD275+ ADE” value is recorded as 50%. In assay [1] (without IWP2 approx. 45%), the “percentage of PDX1+/NKX6.1+ PP2 cells derived from CXCR4+ DE” value came out at 75%. For the same molecule, the “change in percentage of PDX1+/NKX6.1+ double positive PP2 cells in CD177+-derived PP2s” value in assay [1] (without IWP2 approx. 75%) was “No differences were observed”.
Consider `NC(=O)c1ccc(-c2nc(-c3ccc4c(c3)OCO4)c(-c3ccccn3)[nH]2)cc1` [SB431542], for which the “percentage of CD275+ DE differentiation” value in assay [2] (setting [3]) is given as 54.0%.
For `CC(C)Oc1ccc(-c2cnc3c(-c4ccnc5ccccc45)cnn3c2)cc1` [DMH1], the “percentage of CD275+ ADE in the bulk CXCR4+ DE population” value in assay [2] (4 μM DMH1 with 100 ng/ml AA, endoderm differentiation until D4, standard differentiation without inhibitor 21%) was found to be 14%. Further, the “percentage of CD177+ ADE in the bulk CXCR4+ DE population” value in assay [2] (4 μM DMH1 with 100 ng/ml AA, endoderm differentiation until D4, standard differentiation without inhibitor 35.5%) turned out to be 80.5%. Further, the “percentage of CD275+ DE differentiation” value in assay [2] (setting [3]) is given as 54.0%.
